Reference: paper PMC5573973 (Advanced Synthesis & Catalysis, 2017)
One block for each compound: values may come before it.

Columns and labels:
[1] = biological target: T1, PAL from Petroselinum crispum (PcPAL) (Petroselinum crispum, UniProt P24481); conditions: with PcPAL; cited from earlier work
PAL [2] = conditions: cited from earlier work
Y110F mutant of PcPAL = Y110F mutant of PcPAL (Petroselinum crispum, UniProt P24481, Y110F); experiment: Isothermal titration calorimetry with Y110F-PcPAL; assay type: binding; conditions: for Kd: PcPAL_Y110F K d, ITC, pH 8.0, 30 °C
[3] = biological target: T1, PAL from Petroselinum crispum (PcPAL); experiment: Steady-state inhibition kinetics of PcPAL-catalyzed deamination of L-Phe; assay type: biochemical
Pseudomonas putida HAL = conditions: 9 mM, incubation for 120 min in the presence of oxygen; cited from earlier work
PAL [4] = conditions: cited from earlier work; remark: listed apart in the source

SMILES: NC1(P(=O)(O)O)Cc2ccccc2C1 [AIP, 2‐aminoindan‐2‐phosphonic acid]
- Slow binding behavior [1]: one‐step slow binding mechanism
- Ki (PAL [2]): 0.025 µM

SMILES: N[C@H](Cc1ccccc1)C(=O)O [(R)‐1, D‐phenylalanine]
- Kd (Y110F mutant of PcPAL): 29.1 µM
- ΔΔG (Y110F mutant of PcPAL; ΔΔG=ΔG wt−ΔG Y110F, contribution of the hydroxy group of Tyr110): -0.5 kcal/mol
- Type of inhibition (PAL [2]): competitive inhibitor

- Ki [3]: > 1000 µM
- Type of inhibition ([3]; best fitting inhibition model to the experimental data): No inh.
- Inhibition with PcPAL ([3]; up to 1 mM concentration): no measurable inhibition
SMILES: NC(C1(c2ccccc2)CC1)P(=O)(O)O.O (racemic) [(±)‐6, 1-Amino-1-(1-phenylcyclopropyl)methyl-phosphonic acid hydrate]

SMILES: N[C@@H](CCS)C(=O)O [L‐homocysteine]
- Inhibition of HAL (Pseudomonas putida HAL): irreversibly inhibited

SMILES: NO[C@@H](Cc1ccccc1)C(=O)O [AOPP, (S)‐2‐aminooxy‐3‐phenylpropanoic acid]
- Ki (PAL [2]): 0.00038 µM

SMILES: N[C@@H](Cc1ccccc1)C(=O)O [(S)‐1, L‐phenylalanine]
- Kd (Y110F mutant of PcPAL): 23 µM
- Rate of ammonia elimination relative to D-phenylalanine (PAL [4]): more than 4500 times
